Test results published in US8183283B2, “Dendrite elongation inhibitor for melanocyte and skin preparation for external use containing the same” (Pola Chemical Industries Inc., priority 2002, dated 2012).

Tested on: Normal human melanocyte
Experiment: Inhibitory action on the elongation of dendrites using human melanocytes
Type: cell-based
From the text: According to a method shown below, inhibitory action on the elongation of dendrites was examined using human melanocytes. (Reagent, etc.) Cells, basal media, and amplification additives were purchased from KURABO INDUSTRIES LTD.
(Cell) Normal human melanocyte
(Medium) Basal medium (Medium 1545) supplemented with reagents described below
(Reagent) Amplification additive: bovine pituitary extract (BPE) (final concentration of 0.4% v/v in the medium), fetal bovine serum (FBS) (final concentration of 0.5% v/v in the medium), human recombinant basic fibroblast growth factor (rFGF-B) (final concentration of 3 ng/ml in the medium), hydrocortisone (final concentration of 0.18 μg/ml in the medium), insulin (final concentration 5 μg/ml in the medium), transferrin (final concentration of 5 μg/ml in the medium), phorbol 12-myristate 13-acetate (PMA) (final concentration of 10 ng/ml in the medium), heparin (final concentration of 3 μg/ml in the medium), and PSA solution (mixture solution of penicillin concentration of 50,000 Unit/ml, streptomycin concentration of 50 μg/ml, and amphotericin B concentration of 12.5 μg/ml; 1-ml addition with respect to 500 ml of the medium) (Method) […]

## COc1ccc(-c2oc3cc(O)c(OC)c(O)c3c(=O)c2OC)cc1O [Centaureidin, 5,7-dihydroxy-3,6-dimethoxy-2-(5-hydroxy-4-methoxyphenyl)-4H-1-benzopyran-4-on]
24 hours after addition of the sample solution, versus control
  Inhibition against the elongation of dendrites (in words): elongation is inhibited
Sample solution with 100 μg/ml Centaureidin, 50 μl added to 200 μl medium, observed 24 hours after addition, growth factor-supplemented medium
  Length of dendrite: 26 ± 8 μm
